Earlier results in US20260125371A1, “METHOD FOR INHIBITING CLOSTRIDIOIDES DIFFICILE SPORE GERMINATION” (UNIVERSITY OF NOTRE DAME DU LAC, priority 2022, published 2026).
In brackets after ≈: the same amount, converted by molar mass. Read-outs that look alike come from different tables or passages of the source.

Experiments:
C. difficile strains = conditions: cited from earlier work
[1] = system: S. epidermidis ATCC 35547; conditions: cited from earlier work
S. oralis ATCC 9811 = conditions: cited from earlier work
B. cereus ATCC 13061 = conditions: cited from earlier work
[2] = system: B. licheniformis ATCC 12759; conditions: cited from earlier work
E. faecalis = conditions: cited from earlier work
E. faecium = conditions: cited from earlier work
[3] = system: Lactobacillus gasseri HM-644; conditions: cited from earlier work
K. pneumoniae ATCC700603 = conditions: cited from earlier work
A. baumanii ATCC17961 = conditions: cited from earlier work
P. aeruginosa ATCC27853 = conditions: cited from earlier work
E. aerogenes ATCC35029 = conditions: cited from earlier work
E. coli ATCC25922 = conditions: cited from earlier work
Gram-negative bacteria = conditions: organisms of Table 2; data from earlier publication; cited from earlier work

For FC(F)(F)c1ccc(Oc2ccc(-c3noc(-c4ccc5[nH]ccc5c4)n3)cc2)cc1 [Compound 1], the MIC (C. difficile strains; strain NR-49281) is given as 4 µg/mL (≈ 9.49 µM), the MIC (C. difficile strains; strain NR-49282) is given as 8 µg/mL (≈ 19 µM) and the MIC (C. difficile strains; strain NR-49283) is given as 8 µg/mL (≈ 19 µM). For the same compound, the MIC (C. difficile strains; strain NR-49284) was 8 µg/mL (≈ 19 µM), the MIC (C. difficile strains; strain NR-49285) was 4 µg/mL (≈ 9.49 µM) and the MIC (C. difficile strains; strain NR-49286) was 4 µg/mL (≈ 9.49 µM). For the same compound, the MIC (C. difficile strains; strain NR-49287) was 4 µg/mL (≈ 9.49 µM), the MIC (C. difficile strains; strain NR-49288) was 4 µg/mL (≈ 9.49 µM) and the MIC (C. difficile strains; strain NR-49289) was 8 µg/mL (≈ 19 µM). The MIC (C. difficile strains; strain NR-49290) was 8 µg/mL (≈ 19 µM), the MIC (C. difficile strains; strain NR-49291) was 8 µg/mL (≈ 19 µM) and the MIC (C. difficile strains; strain NR-49293) was 4 µg/mL (≈ 9.49 µM). The MIC (C. difficile strains; strain NR-49295) was 4 µg/mL (≈ 9.49 µM), the MIC (C. difficile strains; strain NR-49296) was 4 µg/mL (≈ 9.49 µM) and the MIC (C. difficile strains; strain NR-49297) was 4 µg/mL (≈ 9.49 µM). For the same compound, the MIC (C. difficile strains; strain NR-49298) was 4 µg/mL (≈ 9.49 µM), the MIC (C. difficile strains; strain NR-49299) was 4 µg/mL (≈ 9.49 µM) and the MIC (C. difficile strains; strain NR-49300) was 4 µg/mL (≈ 9.49 µM). For the same compound, the MIC (C. difficile strains; strain NR-49301) was 4 µg/mL (≈ 9.49 µM), the MIC (C. difficile strains; strain NR-49303) was 4 µg/mL (≈ 9.49 µM) and the MIC (C. difficile strains; strain NR-49304) was 4 µg/mL (≈ 9.49 µM). The MIC (C. difficile strains; strain NR-49306) was 4 µg/mL (≈ 9.49 µM), the MIC (C. difficile strains; strain NR-49307) was 4 µg/mL (≈ 9.49 µM) and the MIC (C. difficile strains; strain NR-49308) was 8 µg/mL (≈ 19 µM). The MIC (C. difficile strains; strain NR-49309) was 4 µg/mL (≈ 9.49 µM), the MIC (C. difficile strains; strain NR-49311) was 4 µg/mL (≈ 9.49 µM) and the MIC (C. difficile strains; strain NR-49312) was 8 µg/mL (≈ 19 µM). For the same compound, the MIC (C. difficile strains; strain NR-49313) was 4 µg/mL (≈ 9.49 µM), the MIC (C. difficile strains; strain NR-49314) was 4 µg/mL (≈ 9.49 µM) and the MIC (C. difficile strains; strain NR-49315) was 4 µg/mL (≈ 9.49 µM). For the same compound, the MIC (C. difficile strains; strain NR-49316) was 4 µg/mL (≈ 9.49 µM), the MIC (C. difficile strains; strain NR-49317) was 8 µg/mL (≈ 19 µM) and the MIC (C. difficile strains; strain NR-49319) was 8 µg/mL (≈ 19 µM). The MIC (C. difficile strains; strain NR-49320) was 4 µg/mL (≈ 9.49 µM), the MIC (C. difficile strains; strain NR-49321) was 8 µg/mL (≈ 19 µM) and the MIC (C. difficile strains; strain NR-49323) was 8 µg/mL (≈ 19 µM). The MIC (C. difficile strains; strain NR-49324) was 8 µg/mL (≈ 19 µM), the MIC (C. difficile strains; strain NR-49325) was 8 µg/mL (≈ 19 µM) and the MIC (C. difficile strains; strain NR-49326) was 4 µg/mL (≈ 9.49 µM). For the same compound, the MIC (C. difficile strains; strain NR-49327) was 4 µg/mL (≈ 9.49 µM), the MIC (C. difficile strains; strain NR-49328) was 4 µg/mL (≈ 9.49 µM) and the MIC (C. difficile strains; strain NR-49329) was 4 µg/mL (≈ 9.49 µM). The MIC (C. difficile strains; strain RMA23691) was 4 µg/mL (≈ 9.49 µM), the MIC (C. difficile strains; strain RMA23828) was 4 µg/mL (≈ 9.49 µM) and the MIC (C. difficile strains; strain RMA24531) was 4 µg/mL (≈ 9.49 µM). The MIC (C. difficile strains; strain RMA24923) was 4 µg/mL (≈ 9.49 µM), the MIC (C. difficile strains; strain RMA26675) was 4 µg/mL (≈ 9.49 µM) and the MIC (C. difficile strains; strain RMA27081) was 2 µg/mL (≈ 4.75 µM). For the same compound, the MIC (C. difficile strains; strain RMA27173) was 4 µg/mL (≈ 9.49 µM), the MIC [1] was 2 µg/mL (≈ 4.75 µM) and the MIC (S. oralis ATCC 9811) was 128 µg/mL (≈ 304 µM). The MIC (B. cereus ATCC 13061) was 16 µg/mL (≈ 38 µM), the MIC [2] was 8 µg/mL (≈ 19 µM) and the MIC (E. faecalis; E. faecalis 99 (Van R)) was 4 µg/mL (≈ 9.49 µM). For the same compound, the MIC (E. faecalis; E. faecalis 201 (Van S)) was 4 µg/mL (≈ 9.49 µM), the MIC (E. faecalis; E. faecalis ATCC 29212) was 8 µg/mL (≈ 19 µM) and the MIC (E. faecium; E. faecium 106 (Van R)) was 2 µg/mL (≈ 4.75 µM). For the same compound, the MIC (E. faecium; E. faecium 119-39A (Van S)) was 1 µg/mL (≈ 2.37 µM), the MIC (E. faecium; E. faecium NCTC 7171) was 2 µg/mL (≈ 4.75 µM) and the MIC [3] was >128 µg/mL. The MIC (K. pneumoniae ATCC700603) was >128 µg/mL, the MIC (A. baumanii ATCC17961) was >128 µg/mL and the MIC (P. aeruginosa ATCC27853) was >128 µg/mL. The MIC (E. aerogenes ATCC35029) was >128 µg/mL, the MIC (E. coli ATCC25922) was >128 µg/mL and the “activity against Gram-negative organisms” value (Gram-negative bacteria) was “no activity”.
